From patent EP0059554A2, “Beta-lactam antibiotics, a process for their preparation and their use in pharmaceutical compositions” (BEECHAM GROUP PLC, priority 1981, dated 1982)
Values after ≈ are worked out from the molar mass of the structure shown.

Columns and labels:
Assay in all cases: MIC in broth
Assay type in all cases: cell-based
[1] = test system: Citrobacter freundii E8
[2] = test system: Enterobacter cloacae N1 [T753]
[3] = test system: Escherichia coli 0111 [E8]
[4] = test system: Escherichia coli JT39 [E96]
[5] = test system: Escherichia coli ESS
[6] = test system: Klebsiella aerogenes A [T767]
[7] = test system: Proteus mirabilis 977 [13]
[8] = test system: Proteus morganii 1580; conditions: Morganella morganii
[9] = test system: Proteus rettgeri WM16; conditions: Providencia rettgeri
[10] = test system: Proteus vulgaris W091
[11] = test system: Pseudomonas aeruginosa A [11]
[12] = test system: Salmonella typhimurium CT10; conditions: Salmonella enterica
[13] = test system: Serratia marcescens US20
[14] = test system: Shigella sonnei MB11967
[15] = test system: Bacillus subtilis A
[16] = test system: Staphylococcus aureus Oxford
[17] = test system: Staphylococcus aureus Russell [MB9]
[18] = test system: Staphylococcus aureus 1517
[19] = test system: Streptococcus faecalia I
[20] = test system: Streptococcus pyogenes CN10
[21] = test system: Streptococcus pneumoniae CN33

CC(=O)N/C=C/SC1=C(C(=O)O)N2C(=O)[C@H]([C@@H](C)n3cc(C(=O)O)nn3)[C@H]2C1 [Example 6, Disodium (5R,6S)-3-[(E)-2-acetamidoethenylthio]-6-[(R)-1-(4-carboxytriazol-1-yl)ethyl]-7-oxo-1-azabicyclo [3.2.0.] hept-2-ene-2-carboxylate]
MIC [1]: 25 µg/mL | MIC [2]: 25 µg/mL | MIC [3]: 12.5 µg/mL | MIC [4]: 3.1 µg/mL | MIC [5]: 1.6 µg/mL | MIC [6]: 1.6 µg/mL | MIC [7]: 12.5 µg/mL | MIC [8]: 12.5 µg/mL | MIC [9]: 3.1 µg/mL | MIC [10]: 12.5 µg/mL | MIC [11]: 50 µg/mL | MIC [12]: 1.6 µg/mL | MIC [13]: 6.2 µg/mL | MIC [14]: 3.1 µg/mL | MIC [15]: 6.2 µg/mL | MIC [16]: 6.2 µg/mL | MIC [17]: 6.2 µg/mL | MIC [18]: 25 µg/mL | MIC [19]: 100 µg/mL

CC(=O)N/C=C/SC1=C(C(=O)O)N2C(=O)[C@H]([C@@H](C)n3cc(C(=O)OCCN)nn3)[C@H]2C1 [Example 7, (5R,6S)-3-[(E)-2-acetamidoethenylthio]-6-[(R)-1-(4-(2-aminoethyloxycarbonyl)triazol-1-yl]ethyl]-7-oxo-1-azabicyclo[3.2.0.]hept-2-ene-2-carboxylic acid]
MIC [1]: 0.8 µg/mL (≈ 1.78 µM) | MIC [2]: 1.6 µg/mL (≈ 3.55 µM) | MIC [3]: 1.6 µg/mL (≈ 3.55 µM) | MIC [4]: 0.8 µg/mL (≈ 1.78 µM) | MIC [6]: 3.1 µg/mL (≈ 6.88 µM) | MIC [7]: 25 µg/mL (≈ 55.5 µM) | MIC [9]: 6.2 µg/mL (≈ 13.8 µM) | MIC [10]: 25 µg/mL (≈ 55.5 µM) | MIC [11]: 100 µg/mL (≈ 222 µM) | MIC [12]: 1.6 µg/mL (≈ 3.55 µM) | MIC [13]: 3.1 µg/mL (≈ 6.88 µM) | MIC [14]: 1.6 µg/mL (≈ 3.55 µM) | MIC [15]: 0.8 µg/mL (≈ 1.78 µM) | MIC [16]: 0.4 µg/mL (≈ 0.888 µM) | MIC [17]: 0.4 µg/mL (≈ 0.888 µM) | MIC [18]: 12.5 µg/mL (≈ 27.7 µM) | MIC [19]: 50 µg/mL (≈ 111 µM) | MIC [20]: 0.4 µg/mL (≈ 0.888 µM)

CC(=O)NCCSC1=C(C(=O)O)N2C(=O)[C@H]([C@@H](C)n3cc(C(=O)O)nn3)[C@H]2C1 [Example 4, Disodium (SR,6S) - 3 - (2 - acetamidoethylthio) - 6 - [(R) - 1 - (4 - carboxytriazol - 1 - yl)ethyl] - 7 - oxo - 1 - azabicyclo [3.2.0.]hept - 2 - ene - 2 - carboxylate.]
MIC [1]: 1.6 µg/mL | MIC [2]: 3.1 µg/mL | MIC [4]: 3.1 µg/mL | MIC [5]: 1.6 µg/mL | MIC [6]: 3.1 µg/mL | MIC [7]: 12.5 µg/mL | MIC [8]: 25 µg/mL | MIC [9]: 6.2 µg/mL | MIC [10]: 6.2 µg/mL | MIC [11]: 100 µg/mL | MIC [12]: 6.2 µg/mL | MIC [13]: 6.2 µg/mL | MIC [14]: 12.5 µg/mL | MIC [15]: 3.1 µg/mL | MIC [16]: 6.2 µg/mL | MIC [17]: 6.2 µg/mL | MIC [18]: > 100 µg/mL | MIC [19]: 100 µg/mL | MIC [21]: 1.6 µg/mL | MIC [20]: 1.6 µg/mL
